# Measurements taken from patent US20090036448A1, “PYRIMIDINE DERIVATIVES AND METHODS OF TREATMENT RELATED TO THE USE THEREOF” (TAISHO PHARMECUTICAL CO., LTD., priority 2004, published 2009).
# Target: MCH receptor (Homo sapiens, UniProt Q99705)
# Test: Receptor binding assay with Radiolabelled MCH Ligand
# Parameters: expressed in transfected cells; host or cells: 293 cells (human kidney, ATCC), transient transfection; crude membranes
# Conditions: class by percent of control at 10^-7 M or IC50
# Source text: In addition to the methods described herein, another means for evaluating a test compound is by determining binding affinities to the MCH receptor. This type of assay generally requires a radiolabelled ligand to the MCH receptor. Absent the use of known ligands for the MCH receptor and radiolabels thereof, compounds of Formula (I) can be labelled with a radioisotope and used in an assay for evaluating the affinity of a test compound to the MCH receptor.
# A radiolabelled MCH compound of Formula (I) can be used in a screening assay to identify/evaluate compounds. In general terms, a newly synthesized or identified compound (i.e., test compound) can be evaluated for its ability to reduce binding of the “radiolabelled compound of Formula (I)” to the MCH receptor. Accordingly, the ability to compete with the “radio-labelled compound of Formula (I)” or Radiolabelled MCH Ligand for the binding to the MCH receptor directly correlates to its binding affinity of the test compound to the MCH receptor.
# 293 cells (human kidney, ATCC), transiently transfected with 10 μg human MCH receptor and 60 μl Lipofectamine (per 15-cm dish), are grown in the dish for 24 hours (75% confluency) with a media change and removed with 10 mL/dish of Hepes-EDTA buffer (20 mM Hepes+10 mM EDTA, pH 7.4). The cells are then centrifuged in a Beckman Coulter centrifuge for 20 minutes, 17,000 rpm (JA-25.50 rotor). Subsequently, the pellet is resuspended in 20 mM Hepes+1 mM EDTA, pH 7.4 and homogenized with a 50-mL Dounce homogenizer and again centrifuged. After removing the supernatant, the pellets can be stored at −80° C., until used in binding assay. When used in the assay, membranes are thawed on ice for 20 minutes and then 10 mL of incubation buffer (20 mM Hepes, 1 mM MgCl2, 100 mM NaCl, pH 7.4) added. The membranes are then vortexed to resuspend the crude membrane pellet and homogenized with a Brinkmann PT-3100 Polytron homogenizer for 15 seconds at setting 6. The concentration of membrane protein is determined using the BRL Bradford protein assay.
# For total binding, a total volume of 50 ul of appropriately diluted membranes (diluted in assay buffer containing 50 mM Tris HCl (pH 7.4), 1 mM MgCl2, and 1 mM EDTA; 5-50 ug protein) is added to 96-well polyproylene microtiter plates followed by addition of 100 μl of assay buffer and 50 μl of Radiolabelled MCH Ligand. For nonspecific binding, 50 μl of assay buffer is added instead of 100 μl and an additional 50 μl of 10 uM cold MCH is added before 50 μl of Radiolabelled MCH Ligand is added. Plates are then incubated at room temperature for 60-120 minutes. The binding reaction is terminated by filtering assay plates through a Microplate Devices GF/C Unifilter filtration plate with a Brandell 96-well plate harvester followed by washing with cold 50 mM Tris HCl, pH 7.4 containing 0.9% NaCl. Then, the bottom of the filtration plate are sealed, 50 ul of Optiphase Supermix is added to each well, the top of the plates are sealed, and plates are counted in a Trilux MicroBeta scintillation counter. For compound competition studies, instead of adding 100 μl of assay buffer, 100 μl of appropriately diluted test compound is added to appropriate wells followed by addition of 50 μl of Radiolabelled MCH Ligand.
# The test compounds are initially assayed at 1 and 0.1 μM and then at a range of concentrations chosen such that the middle dose would cause about 50% inhibition of a Radiolabelled MCH Ligand binding (i.e., IC50). Specific binding in the absence of test compound (BO) is the difference of total binding (BT) minus non-specific binding (NSB) and similarly specific binding (in the presence of test compound) (B) is the difference of displacement binding (BD) minus non-specific binding (NSB). IC50 is determined from an inhibition response curve, logit-log plot of % B/BO vs. concentration of test compound.
# Ki is calculated by the Cheng and Prustoff transformation: […]
# Sequence of MCH receptor (Q99705 whole entry): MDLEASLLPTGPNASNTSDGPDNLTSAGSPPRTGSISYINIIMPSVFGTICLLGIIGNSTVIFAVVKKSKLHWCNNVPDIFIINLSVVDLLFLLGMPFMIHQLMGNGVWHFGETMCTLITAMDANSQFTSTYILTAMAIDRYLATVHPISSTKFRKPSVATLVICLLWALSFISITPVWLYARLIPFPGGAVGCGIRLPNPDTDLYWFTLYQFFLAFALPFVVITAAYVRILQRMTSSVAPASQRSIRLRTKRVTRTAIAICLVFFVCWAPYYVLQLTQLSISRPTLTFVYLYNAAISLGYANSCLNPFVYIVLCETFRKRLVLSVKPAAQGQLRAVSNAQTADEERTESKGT
row,SMILES,class
1,Cc1nc(N[C@H]2CC[C@@H](NC(=O)CCCc3ccc4c(c3)OCCO4)CC2)cc(N(C)C)n1 [compound 341],3 (Class 3: The value of percent of control at 10^−7 M was more than 60% or the value of IC50 was more than 200 nM.)
2,Cc1nc(N[C@H]2CC[C@@H](NC(=O)C3CCCCC3)CC2)cc(N(C)C)n1 [compound 212],3 (Class 3: The value of percent of control at 10^−7 M was more than 60% or the value of IC50 was more than 200 nM.)
3,"Cc1nc(N[C@H]2CC[C@@H](NC(=O)NC(C)c3cccc4ccccc34)CC2)cc(N(C)C)n1 (relative stereo) [compound 415, N-(cis-4-{[6-(dimethylamino)-2-methylpyrimidin-4-yl]amino}cyclohexyl)-N′-[1-(1-naphthyl)ethyl]urea]",1 (Class 1: The value of percent of control at 10^−7 M was less than 40% or the value of IC50 was less than 50 nM.)
4,Cc1nc(N[C@H]2CC[C@@H](NCCOc3ccccc3[N+](=O)[O-])CC2)cc(N(C)C)n1 [compound 385],3 (Class 3: The value of percent of control at 10^−7 M was more than 60% or the value of IC50 was more than 200 nM.)
5,Cc1nc(N[C@H]2CC[C@@H](NC(=O)c3ccc4c(c3)C(=O)c3ccccc3C4=O)CC2)cc(N(C)C)n1 [compound 198],3 (Class 3: The value of percent of control at 10^−7 M was more than 60% or the value of IC50 was more than 200 nM.)
6,Cc1nc(N[C@H]2CC[C@@H](NCc3ccc(F)c(F)c3)CC2)cc(N(C)C)n1 [compound 369],3 (Class 3: The value of percent of control at 10^−7 M was more than 60% or the value of IC50 was more than 200 nM.)
7,Cc1nc(N[C@H]2CC[C@@H](NC(=O)c3cccs3)CC2)cc(N(C)C)n1 [compound 243],3 (Class 3: The value of percent of control at 10^−7 M was more than 60% or the value of IC50 was more than 200 nM.)
8,COc1ccc2[nH]c(C(=O)N[C@H]3CC[C@@H](Nc4cc(N(C)C)nc(C)n4)CC3)cc2c1 [compound 293],3 (Class 3: The value of percent of control at 10^−7 M was more than 60% or the value of IC50 was more than 200 nM.)
9,Cc1nc(N[C@H]2CC[C@@H](NC(=O)c3ccco3)CC2)cc(N(C)C)n1 [compound 222],3 (Class 3: The value of percent of control at 10^−7 M was more than 60% or the value of IC50 was more than 200 nM.)
10,Cc1nc(N[C@H]2CC[C@@H](NS(=O)(=O)c3ccc4c(c3)CN(C(=O)C(F)(F)F)CC4)CC2)cc(N(C)C)n1 [compound 509],3 (Class 3: The value of percent of control at 10^−7 M was more than 60% or the value of IC50 was more than 200 nM.)
11,Cc1nc(N[C@H]2CC[C@@H](NC(=O)c3ccc(-c4ccccc4)cc3)CC2)cc(N(C)C)n1 [compound 201],3 (Class 3: The value of percent of control at 10^−7 M was more than 60% or the value of IC50 was more than 200 nM.)
12,Cc1nc(N[C@H]2CC[C@@H](NC(=O)C(C(=O)OCc3ccccc3)c3ccccc3)CC2)cc(N(C)C)n1 (relative stereo) [compound 321],3 (Class 3: The value of percent of control at 10^−7 M was more than 60% or the value of IC50 was more than 200 nM.)
13,Cc1nc(N[C@H]2CC[C@@H](NCc3cc(C(C)(C)C)nn3Cc3ccccc3)CC2)cc(N(C)C)n1 [compound 407],3 (Class 3: The value of percent of control at 10^−7 M was more than 60% or the value of IC50 was more than 200 nM.)
14,COc1ccc2c(c1)C(CC(=O)N[C@H]1CC[C@@H](Nc3cc(N(C)C)nc(C)n3)CC1)CC2=O (relative stereo) [compound 290],3 (Class 3: The value of percent of control at 10^−7 M was more than 60% or the value of IC50 was more than 200 nM.)
15,Cc1nc(NC2CCC(NC(=O)C(Cc3ccccc3)NS(=O)(=O)c3cccc4ccccc34)CC2)cc(N(C)C)n1 (centres unmarked) [compound 260],3 (Class 3: The value of percent of control at 10^−7 M was more than 60% or the value of IC50 was more than 200 nM.)
16,Cc1nc(N[C@H]2CC[C@@H](NC(=O)OC3C[C@H](C)CC[C@H]3C(C)C)CC2)cc(N(C)C)n1 (some centres unmarked) [compound 465],3 (Class 3: The value of percent of control at 10^−7 M was more than 60% or the value of IC50 was more than 200 nM.)
17,Cc1nc(N[C@H]2CC[C@@H](NC(=O)C3=Cc4cc(Cl)ccc4OC3)CC2)cc(N(C)C)n1 [compound 271],3 (Class 3: The value of percent of control at 10^−7 M was more than 60% or the value of IC50 was more than 200 nM.)
18,Cc1nc(N[C@H]2CC[C@@H](NCC3CC3)CC2)cc(N(C)C)n1 [compound 362],3 (Class 3: The value of percent of control at 10^−7 M was more than 60% or the value of IC50 was more than 200 nM.)
19,CCOc1ccc(CN[C@H]2CC[C@@H](Nc3cc(N(C)C)nc(C)n3)CC2)cc1 [compound 371],3 (Class 3: The value of percent of control at 10^−7 M was more than 60% or the value of IC50 was more than 200 nM.)
20,COc1ccc(CN[C@H]2CC[C@@H](Nc3cc(N(C)C)nc(C)n3)CC2)cc1OC [compound 370],3 (Class 3: The value of percent of control at 10^−7 M was more than 60% or the value of IC50 was more than 200 nM.)
21,COC(=O)c1ccc(S(=O)(=O)N[C@H]2CC[C@@H](Nc3cc(N(C)C)nc(C)n3)CC2)n1C [compound 507],3 (Class 3: The value of percent of control at 10^−7 M was more than 60% or the value of IC50 was more than 200 nM.)
22,Cc1nc(N[C@H]2CC[C@@H](NC(=O)c3cccc4c3-c3ccc([N+](=O)[O-])cc3C4)CC2)cc(N(C)C)n1 [compound 308],3 (Class 3: The value of percent of control at 10^−7 M was more than 60% or the value of IC50 was more than 200 nM.)
23,CCCCCCCOc1ccc(CN[C@H]2CC[C@@H](Nc3cc(N(C)C)nc(C)n3)CC2)cc1 [compound 396],3 (Class 3: The value of percent of control at 10^−7 M was more than 60% or the value of IC50 was more than 200 nM.)
24,Cc1nc(N[C@H]2CC[C@@H](NS(C)(=O)=O)CC2)cc(N(C)C)n1 [compound 478],3 (Class 3: The value of percent of control at 10^−7 M was more than 60% or the value of IC50 was more than 200 nM.)
25,Cc1nc(N[C@H]2CC[C@@H](NC(=O)c3ccccc3C(=O)c3cc(C(F)(F)F)cc(C(F)(F)F)c3)CC2)cc(N(C)C)n1 [compound 322],3 (Class 3: The value of percent of control at 10^−7 M was more than 60% or the value of IC50 was more than 200 nM.)
26,Cc1nc(N[C@H]2CC[C@@H](NS(=O)(=O)Cc3ccccc3[N+](=O)[O-])CC2)cc(N(C)C)n1 [compound 475],3 (Class 3: The value of percent of control at 10^−7 M was more than 60% or the value of IC50 was more than 200 nM.)
27,Cc1nc(N[C@H]2CC[C@@H](NC(=O)c3cc(C(C)(C)C)nn3Cc3ccc(Cl)cc3Cl)CC2)cc(N(C)C)n1 [compound 270],3 (Class 3: The value of percent of control at 10^−7 M was more than 60% or the value of IC50 was more than 200 nM.)
28,Cc1nc(N[C@H]2CC[C@@H](NC(=O)NC(c3ccccc3)c3ccccc3)CC2)cc(N(C)C)n1 [compound 414],3 (Class 3: The value of percent of control at 10^−7 M was more than 60% or the value of IC50 was more than 200 nM.)
29,COc1ccc(NC(=S)N[C@H]2CC[C@@H](Nc3cc(N(C)C)nc(C)n3)CC2)cc1OC [compound 445],3 (Class 3: The value of percent of control at 10^−7 M was more than 60% or the value of IC50 was more than 200 nM.)
